Measurements as given in patent publication US20100331577A1, “Method for radio-labeling serotonin transporter ligand, 123I-IADM” (ATOMIC ENERGY COUNCIL-INSTITUTE OF NUCLEAR ENERGY RESEARCH, priority 2008, published 2010).

Columns and labels:
serotonin transporter [1] = test: SPECT and MRI imaging of the brain of an ape; assay type: in vivo
Source text: Referring to FIG. 9, the ^123I-ADAM is used to provide a SPECT image and a MRI image 82 of an ape. […] The concentration of the serotonin transporter in the hypothalamus is higher than in the cerebellum 83. The ^123I-ADAM 13 can effectively be used to detect the serotonin transporter.

[2] = radiochemistry purity over time measured by HPLC (stability); assay type: physicochemical; settings: main peak 63
Description: Referring to FIG. 4, an HPLC is used to measure the radiochemistry purity of the ^123I-ADAM 13. Reverse-phase high-performance liquid chromatography equipped with a radiodetector is used for the qualitative and quantitative assessment of the ^123I-ADAM 13. The retention time of the ^123I-ADAM 13 is 18 minutes.
Referring to FIG. 6, the radiochemistry purity of the ^123I-ADAM after 0 hour is shown in a chart. At 61, the radiochemistry purity is 0.67%. At 62, the radiochemistry purity is 1.58%. At 63, the radiochemistry purity is 97.78%.
Referring to FIG. 7, the radiochemistry purity of the ^123I-ADAM after 48 hours is shown in a chart. At 64, the radiochemistry purity is 4.41%. At 65, the radiochemistry purity is 1.55%. At 66 the radiochemistry purity is 94.04%. After 48 hours, the radiochemistry purity is still higher than 90%.

serotonin transporter [3] = molecular target: T1, serotonin transporter (Rattus norvegicus, UniProt P31652); test: microSPECT and microCT imaging of the brain of a SD rat; assay type: in vivo
T1 construct: from tissue; host or cells: brain of a SD rat (in vivo imaging)
T1 sequence (P31652 whole entry): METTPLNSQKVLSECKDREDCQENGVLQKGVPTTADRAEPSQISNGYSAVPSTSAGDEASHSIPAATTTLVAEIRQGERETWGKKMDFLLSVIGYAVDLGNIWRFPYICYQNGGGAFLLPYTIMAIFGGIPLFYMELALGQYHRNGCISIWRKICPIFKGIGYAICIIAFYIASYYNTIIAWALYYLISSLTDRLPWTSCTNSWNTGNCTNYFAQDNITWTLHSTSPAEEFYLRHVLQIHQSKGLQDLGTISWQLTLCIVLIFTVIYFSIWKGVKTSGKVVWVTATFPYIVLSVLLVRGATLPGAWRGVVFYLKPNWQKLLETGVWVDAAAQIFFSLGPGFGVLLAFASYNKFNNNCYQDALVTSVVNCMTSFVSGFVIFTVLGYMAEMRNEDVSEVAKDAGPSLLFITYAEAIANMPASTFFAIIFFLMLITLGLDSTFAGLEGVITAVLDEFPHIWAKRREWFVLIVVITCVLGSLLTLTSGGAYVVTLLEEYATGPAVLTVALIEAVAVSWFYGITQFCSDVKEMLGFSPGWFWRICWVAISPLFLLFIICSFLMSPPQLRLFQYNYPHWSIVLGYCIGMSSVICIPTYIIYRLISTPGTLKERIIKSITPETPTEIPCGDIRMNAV
Source text: Referring to FIG. 8, a microCT image 71 and a microSPECT image 72 of the brain of a SD rat are shown. A fused image 73 of the microCT image and the microSPECT image 72 is also shown. […] The concentration of the serotonin transporter in the midbrain is higher than in the cerebellum 73. The ^123I-ADAM 13 can effectively be used to detect the serotonin transporter.

serotonin transporter [4] = molecular target: T2, serotonin transporter (Homo sapiens, UniProt P31645); settings: cited from earlier work; for clarity of the image obtained: compared with ^125I-IDAM; for specific binding affinity: imaging of the serotonin transporter
T2 sequence (P31645 whole entry): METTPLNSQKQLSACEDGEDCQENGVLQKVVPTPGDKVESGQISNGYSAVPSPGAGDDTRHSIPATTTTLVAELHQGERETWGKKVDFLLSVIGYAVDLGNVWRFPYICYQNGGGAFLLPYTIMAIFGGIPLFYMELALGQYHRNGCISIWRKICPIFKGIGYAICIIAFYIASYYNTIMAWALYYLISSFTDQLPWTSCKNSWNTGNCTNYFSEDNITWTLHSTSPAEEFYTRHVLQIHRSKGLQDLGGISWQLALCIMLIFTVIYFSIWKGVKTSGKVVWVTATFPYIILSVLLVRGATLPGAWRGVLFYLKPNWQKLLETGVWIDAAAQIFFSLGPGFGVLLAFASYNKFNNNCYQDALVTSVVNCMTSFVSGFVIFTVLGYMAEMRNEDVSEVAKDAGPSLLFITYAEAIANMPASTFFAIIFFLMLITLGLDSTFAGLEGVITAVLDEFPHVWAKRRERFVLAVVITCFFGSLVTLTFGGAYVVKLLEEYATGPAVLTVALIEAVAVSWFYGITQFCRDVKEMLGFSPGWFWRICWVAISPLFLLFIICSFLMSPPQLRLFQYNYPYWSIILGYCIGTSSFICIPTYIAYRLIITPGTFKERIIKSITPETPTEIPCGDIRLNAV

serotonin transporter [5] = molecular target: T2, serotonin transporter; settings: cited from earlier work
[6] = cited from earlier work
SERT = SERT (Homo sapiens, UniProt P31645); settings: in vitro specific binding assay; cited from earlier work
Sequence of SERT (P31645 whole entry): as above

With `CN(C)Cc1ccccc1Sc1ccc([123I])cc1N` [^123I-ADAM] the “affinity with the hypothalamus of the midbrain versus cerebellum” value (serotonin transporter [1]) was “more affinitive than with the cerebellum”, the “radiochemistry purity after 0 hour” value [2] was 97.78% and the “affinity with the midbrain versus cerebellum” value (serotonin transporter [3]) was “better than with the cerebellum”.

For `CN(C)Cc1ccccc1Sc1ccc([125I])cc1N` [^125I-ADAM], the “clarity of the image obtained” value (serotonin transporter [4]) is listed as “clearer”, the specific binding affinity (serotonin transporter [4]) is listed as “much higher than ^125I-IDAM” and the “affinity with the serotonin transporter” value (serotonin transporter [5]) is listed as “much better than that of ^125I-IDAM”. For the same molecule, the “absorption by the brain” value ([6]; compared with ^125I-IDAM) was “less than ^125I-IDAM”.

In the case of `CN(C)Cc1ccccc1Sc1ccc([125I])cc1CO` [^125I-IDAM], the specific binding affinity (serotonin transporter [4]) is given as 1.75 and the “absorption by a brain” value ([6]; two minutes after injection) is given as 2.44%.

In the case of `CN(C)Cc1ccccc1Oc1ccc([125I])cc1CO` [^125I-ODAM], the “clarity of the image obtained” value (serotonin transporter [4]) is given as “less clear than with the use of ^125I-IDAM” and the “specific binding affinity with SERT” value (SERT) is given as “good”.
